# Entries after “also recorded” stand apart in the source; their conditions may differ. Marks after values point to notes of the source that are not given here.
# Tests used:
# TAC mice = experiment: Transverse aortic constriction (TAC) in mice, Protocol 1: febuxostat for 8 days beginning ~60 min after TAC; type: in vivo
# Description: (§1) • Mice. Male C57/BL6 mice at 8-9 weeks of age were purchased from Jackson Laboratories (Bar Harbor, Me.) for use in this study. Mice were housed in an air-conditioned room with a 12-hour:12-hour light-dark cycle, received standard mouse chow, and drank tap water. This study was approved by the Institutional Animal Care and Use Committee of the University of Minnesota. • Experimental Protocol 1. This protocol was designed to determine whether febuxostat (2-[3-cyano-4-(2-methylpropoxy)phenyl]-4-methylthiazole-5-carboxylic acid) treatment, beginning immediately after the onset of acute pressure overload, could protect against transverse aortic constriction (TAC)-induced left ventricular (LV) hypertrophy, dysfunction and mortality. Three treatment groups were included (See Table 1, below): sham-operated mice (n=20), TAC mice treated with vehicle (0.5% methylcellulose) (n=30), and TAC mice treated with febuxostat (suspension in 0.5% methylcellulose) (n=30). To generate LV hypertrophy in a short time period with a significant incidence of cardiac mortality, TAC was created by ligating the transverse aorta against a 27 G needle to create severe LV pressure overload. Since mice tend to take in less water and food during the first 1-3 days after the TAC procedure, febuxostat (5 mg/kg/day in 250 μl vehicle) or vehicle (250 μl) was administered daily by oral gavage for a total of 8 days, with the first dose administered on the day of the surgery after the animal awoke from anesthesia (˜60 min after the TAC procedure). On the eighth day, LV function was assessed by echocardiography approximately 1 hour after the last febuxostat or vehicle dose. Approximately 3 hours after echocardiographic evaluation (4 hours after the last febuxostat or vehicle dose), the mice were weighed and blood samples collected. The animals were euthanized and the heart and lungs excised; the right and left atria were trimmed away, and the ventricles and lungs were weighed. Tissue from the left ventricle was used for histological evaluation and Western blots. • Experimental Protocol 2. This protocol was designed to determine whether administration of febuxostat (FBS) or allopurinol (AL) beginning after the onset of cardiac hypertrophy, LV dysfunction and heart failure could exert a protective effect. For this protocol, mice subjected to TAC (using a 26 gauge (G) needle to generate moderate TAC) or sham surgery were divided into six experimental groups as described in Table 1, below. Beginning seven days after TAC, animals were treated with vehicle (0.01 mg/ml NaCl, equivalent salt content as in the FBS drinking water), FBS (0.05 mg/ml) or AL (0.15 mg/ml) in drinking water for three weeks. Following three weeks of treatment, ventricular function was assessed by echocardiography. Blood samples and cardiac tissue were collected during 2-3 hours after the echocardiographic evaluation as described previously in Protocol 1.
# (§2) • Minimally Invasive TAC Procedure. TAC was performed using the minimally invasive suprasternal approach described by Hu et al. (See, Hu et al., Am. J. Physiol. Heart Circ. Physiol., 3:H1261-9 (2003)). Mice were anesthetized with a mixture of 80 mg/kg ketamine and 30 mg/kg xylazine intraperitoneally. A horizontal incision was made at the level of the suprasternal notch to allow direct visualization of the transverse aorta without entering the pleural space. With the aid of a dissecting microscope, aortic constriction was performed by ligating the aorta between the right innominate artery and the left carotid artery over a 27 G) needle using 5-0 silk suture. The needle was immediately removed after ligation, leaving the aortic constriction in place. The incision was closed and the animals were allowed to recover. Analgesia was provided before the mice awoke from anesthesia. Sham surgery utilized the same procedure but without aortic ligation. • Echocardiography.
# [1] = tested on: mice subjected to TAC or sham surgery; experiment: TAC or sham surgery in mice, Protocol 2: febuxostat or allopurinol for three weeks beginning seven days after TAC; type: in vivo; conditions: for Anterior wall thickness at end-diastole / Anterior wall thickness at end-systole / LV ejection fraction / Lung weight / Lung/body weight / Posterior wall thickness at end-diastole / Posterior wall thickness at end-systole / Ventricle weight / Ventricle/body weight / LV fractional shortening / LV end-diastolic diameter / LV end-systolic diameter: drinking water (FBS 0.05 mg/ml, allopurinol 0.15 mg/ml) three weeks from day 7; for Survival rate: over the three-week treatment period; for TAC-induced ventricular fibrosis: histological staining
# Description: as §1, §2
# [2] = 5 mg/kg/day oral gavage for 8 days from ~60 min after TAC
# [3] = 8 days, versus TAC vehicle, listed as FBS
# [4] = sham-operated mice, three-week treatment
# [5] = sham-operated mice, three-week treatment, versus vehicle
structure (smiles),measurement,setting,value
"Cc1nc(-c2ccc(OCC(C)C)c(C#N)c2)sc1C(=O)O [febuxostat, 2-[3-cyano-4-(2-methylpropoxy)phenyl]-4-methylthiazole-5-carboxylic acid]",Anterior wall thickness at end-diastole,TAC mice; [2],0.84 ± 0.02 mm
same,Anterior wall thickness at end-systole,TAC mice; [2],1.10 ± 0.04 mm
same,LV fractional shortening,TAC mice; [2],"31.5 ± 2.2*^,# %"
same,Lung weight,TAC mice; [2],163 ± 16 mg
same,Posterior wall thickness at end-diastole,TAC mice; [2],"0.83 ± 0.02*^,# mm"
same,Posterior wall thickness at end-systole,TAC mice; [2],1.10 ± 0.03 mm
same,Ventricle weight,TAC mice; [2],"138 ± 7.0*^,# mg"
same,Cardiac myocyte diameter,TAC mice; 8 days,16.3±0.3 μm
same,Mortality (mice died),TAC mice; 8 days,14 out of 30
same,Myocardial fibrosis,TAC mice; 8 days,8.3±2. %
same,TAC-induced left ventricular (LV) hypertrophy,"TAC mice; 8 days, FIG. 1A",significantly attenuated
same,TAC-induced pulmonary congestion,"TAC mice; 8 days, FIG. 1B",tended to decrease
same,TAC-induced cardiac sudden death / mortality (effect),"TAC mice; 8 days, FIG. 1C",not affected; also recorded: no effect
same,TAC-induced increase of myocardial ANP,"TAC mice; 8 days, Western blot of LV",significantly attenuated
same,TAC-induced increase of myocardial collagen III,"TAC mice; 8 days, Western blot of LV",significantly attenuated
same,TAC-induced increase of myocardial nitrotyrosine,"TAC mice; 8 days, Western blot of LV",significantly blunted
same,TAC-induced increase of myocardial pre-collagen I,"TAC mice; 8 days, Western blot of LV",significantly attenuated
same,TAC-induced increase of p-Erk Thr202/204,"TAC mice; 8 days, Western blot of LV",significantly attenuated
same,TAC-induced increase of p-mTOR Ser2488,"TAC mice; 8 days, Western blot of LV",significantly attenuated
same,TAC-induced increase of t-Erk,"TAC mice; 8 days, Western blot of LV",significantly attenuated
same,TAC-induced increase of myocardial nitrotyrosine,"TAC mice; 8 days, Western blot of LV, listed as FBS",significantly attenuated
same,Decrease of pulmonary congestion (ratio of lung weight to body weight),"TAC mice; 8 days, versus TAC vehicle",about 18%
same,LV diameter at end-diastole,"TAC mice; 8 days, versus TAC vehicle",no significant effect
same,Plasma uric acid,"TAC mice; 8 days, versus TAC vehicle",significantly decreased
same,Reduction of ventricular hypertrophy (ratio of ventricular mass to body weight),"TAC mice; 8 days, versus TAC vehicle",approximately 15%
same,TAC-induced decrease of LV ejection fraction,"TAC mice; 8 days, versus TAC vehicle",attenuated
same,TAC-induced decrease of LV fractional shortening,"TAC mice; 8 days, versus TAC vehicle",attenuated
same,TAC-induced increase of LV diameter at end-systole,"TAC mice; 8 days, versus TAC vehicle",trend toward attenuating
same,TAC-induced increase of LV end-diastolic wall thickness,"TAC mice; 8 days, versus TAC vehicle",significantly attenuated
same,LV diameter at end-diastole,TAC mice; [3],not changed
same,TAC-induced decrease of LV ejection fraction,TAC mice; [3],significantly attenuated
same,TAC-induced increase of LV diameter at end-systole,TAC mice; [3],trend toward attenuation
same,Anterior wall thickness at end-diastole,[1]; TAC mice,0.85 ± 0.02^a mm
same,Anterior wall thickness at end-systole,[1]; TAC mice,1.19 ± 0.02^a mm
same,LV ejection fraction,[1]; TAC mice,63.9 ± 1.9^a %
same,Lung weight,[1]; TAC mice,170 ± 17 mg
same,Lung/body weight,[1]; TAC mice,6.59 ± 0.64 mg/g
same,Posterior wall thickness at end-diastole,[1]; TAC mice,0.84 ± 0.02^a mm
same,Posterior wall thickness at end-systole,[1]; TAC mice,1.18 ± 0.02^a mm
same,Ventricle weight,[1]; TAC mice,158 ± 6^a mg
same,Ventricle/body weight,[1]; TAC mice,6.11 ± 0.21^a mg/g
same,Survival rate,[1]; TAC mice,96%
same,LV end-diastolic wall thickness,"[1]; TAC mice, three-week treatment",unchanged
same,Plasma uric acid,"[1]; TAC mice, three-week treatment",decreased
same,TAC-induced cardiac myocyte hypertrophy,"[1]; TAC mice, three-week treatment",no effect
same,TAC-induced ventricular fibrosis,"[1]; TAC mice, three-week treatment",not affected
same,Improvement (increase) of LV ejection fraction,"[1]; TAC mice, three-week treatment, versus vehicle",~10%
same,Anterior wall thickness at end-diastole,[1]; sham mice,0.72 ± 0.02 mm
same,Anterior wall thickness at end-systole,[1]; sham mice,1.18 ± 0.04 mm
same,LV ejection fraction,[1]; sham mice,85.5 ± 1.6^a %
same,LV fractional shortening,[1]; sham mice,48.3 ± 2.2^a %
same,Lung/body weight,[1]; sham mice,5.42 ± 0.11 mg/g
same,Posterior wall thickness at end-diastole,[1]; sham mice,0.72 ± 0.02 mm
same,Posterior wall thickness at end-systole,[1]; sham mice,1.18 ± 0.04^a mm
same,Ventricle/body weight,[1]; sham mice,3.94 ± 0.07 mg/g
same,End-diastolic wall thickness,[1]; [4],did not change
same,Plasma uric acid,[1]; [4],significantly decreased
same,Increase in LV ejection fraction,[1]; [5],~9%
same,Increase in LV fractional shortening,[1]; [5],~15%
Oc1ncnc2[nH]ncc12 [allopurinol],Anterior wall thickness at end-diastole,[1]; TAC mice,0.87 ± 0.02^a mm
same,Anterior wall thickness at end-systole,[1]; TAC mice,1.20 ± 0.03^a mm
same,LV ejection fraction,[1]; TAC mice,60.2 ± 2.2^a %
same,LV end-diastolic diameter,[1]; TAC mice,4.21 ± 0.08^a mm
same,LV end-systolic diameter,[1]; TAC mice,3.09 ± 0.10^a mm
same,LV fractional shortening,[1]; TAC mice,26.8 ± 1.4^a %
same,Lung weight,[1]; TAC mice,166 ± 16 mg
same,Lung/body weight,[1]; TAC mice,6.98 ± 0.94 mg/g
same,Posterior wall thickness at end-diastole,[1]; TAC mice,0.88 ± 0.02^a mm
same,Posterior wall thickness at end-systole,[1]; TAC mice,1.20 ± 0.03^a mm
same,Ventricle weight,[1]; TAC mice,153 ± 6^a mg
same,Ventricle/body weight,[1]; TAC mice,6.27 ± 0.36^a mg/g
same,Lung/body weight,"[1]; TAC mice, listed as AL",no significant effect
same,Ventricle/body weight,"[1]; TAC mice, listed as AL",no significant effect
same,Survival rate,[1]; TAC mice,76%
same,Plasma uric acid,"[1]; TAC mice, three-week treatment",decreased
same,TAC-induced ventricular fibrosis,"[1]; TAC mice, three-week treatment",not affected
same,LV function and dimensions (echocardiography),"[1]; TAC mice, three-week treatment, versus vehicle-treated TAC mice",no effect
same,Anterior wall thickness at end-diastole,[1]; sham mice,0.74 ± 0.01 mm
same,Anterior wall thickness at end-systole,[1]; sham mice,1.11 ± 0.04 mm
same,LV ejection fraction,[1]; sham mice,77.7 ± 2.1%
same,LV end-diastolic diameter,[1]; sham mice,3.71 ± 0.06 mm
same,LV end-systolic diameter,[1]; sham mice,2.22 ± 0.07 mm
same,LV fractional shortening,[1]; sham mice,40.1 ± 2.0%
same,Lung weight,[1]; sham mice,131 ± 3 mg
same,Lung/body weight,[1]; sham mice,5.40 ± 0.14 mg/g
same,Posterior wall thickness at end-diastole,[1]; sham mice,0.74 ± 0.01 mm
same,Posterior wall thickness at end-systole,[1]; sham mice,1.11 ± 0.03 mm
same,Ventricle weight,[1]; sham mice,100 ± 3 mg
same,Ventricle/body weight,[1]; sham mice,4.13 ± 0.12 mg/g
same,Lung weight,"[1]; sham mice, listed as AL",no significant effects
same,Lung/body weight,"[1]; sham mice, listed as AL",no significant effects
same,Ventricle weight,"[1]; sham mice, listed as AL",no significant effects
same,Ventricle/body weight,"[1]; sham mice, listed as AL",no significant effects
same,LV function and dimensions (any of the parameters evaluated by echocardiography),[1]; [4],no effect
same,Plasma uric acid,[1]; [4],significantly decreased
